According to US12240844B2 (Voronoi, Inc., priority 2019, dated 2025):

Assays:
[1] = biological target: T1, LRRK2, LRRK2 (G2019S), DYRK1, CLK1 and TTK kinases (Homo sapiens, UniProt Q13627); test: Enzyme IC50 by Kinase HotSpot service (Reaction Biology Corporation), values marked with *; assay type: biochemical; conditions: DYRK1, ATP 10 uM
T1 construct: other: DYRK1; Kinase HotSpot service (Reaction Biology), ATP 10 uM
Protocol: Meanwhile, the enzyme IC50 measurement for some compounds was performed using Kinase HotSpot service (Reaction Biology Corporation); during the test, the ATP concentration was 10 uM, where all were conducted under the same condition; and the concentration of the compound was measured by giving a 3-fold concentration gradient with the highest concentration of […], where the values measured using Kinase HotSpot service (Reaction Biology Corporation) were marked with “*”.
All experimental methods were performed as provided in Kinase HotSpot Customer Protocol (http://www.reactionbiology.com//Kinase_Assay_Protocol).
In the table below, the following designations were used for the evaluation of enzyme inhibitory ability.

human GST-CLK1 (129-end) = biological target: T2, human GST-CLK1 (129-end) (Homo sapiens, UniProt P49759); test: GST-CLK1 enzyme inhibition, ADP-Glo kinase assay; assay type: biochemical; conditions: ATP 10 uM
T2 construct: purified human GST-CLK1 (129-end, Signalchem) enzyme; GST; purchased Signalchem
How it was run: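 GST-CLK1 (129-end, 3 ng) reacted with 10 uM ATP and substrate in 40 mM Tris-HCl pH 7.4, 20 mM MgCl2, 0.5 mg/mL BSA, 50 uM DTT, 1 h at 25° C. ADP-Glo luminescence normalised to solvent control; IC50 from triplicate data.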

LRRK2 = LRRK2 (Homo sapiens, UniProt Q5S007); test: LRRK2 enzyme inhibition, ADP-Glo kinase assay; assay type: biochemical; set-up: purchased Invitrogen PR8604B
How it was run: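 Purified human LRRK2 (25 ng) in 40 mM Tris-HCl pH7.4, 20 mM MgCl2, 0.5 mg/ml BSA, 50 μM DTT with 10 μM ATP and substrate ([…]), 2 h at 25° C. Final compound 50 to 0.000001024 μM, 12-point dilution. ADP-Glo luminescence vs solvent control; IC50 (nM).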

[2] = biological target: T3, human GST-DYRK1A (full length) (Homo sapiens, UniProt Q13627); test: GST-DYRK1A enzyme inhibition, ADP-Glo kinase assay; assay type: biochemical; conditions: read-out: DYRK1 IC50
T3 construct: purified human GST-DYRK1A (full length, Thermo scientifics) enzyme; GST; purchased Thermo scientifics
How it was run: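 Full-length human GST-DYRK1A (10 ng) incubated with 10 uM ATP and specific substrate for 1 h at 25° C in 40 mM Tris-HCl pH 7.4, 20 mM MgCl2, 0.5 mg/mL BSA, 50 uM DTT. ADP formation read by ADP-Glo luminescence; IC50 (nM) versus solvent control, triplicate.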

TNF-α = TNF-α secretion inhibition in LPS-treated THP-1 cells (ELISA); assay type: cell-based; conditions: Homo sapiens, compound 0.5 μM, LPS 500 ng/ml, 24 hours, read-out: THP-1/TNF-a (% inhib)
Protocol: (§1) In order to evaluate the cytokine secretion inhibitory efficacy of mononuclear cells, THP-1 cells (ATCC, #TIB-202) as a human-derived monocyte cell line were cultured in RPMI-1640 (Hyclone, SH30027.01) media in which 10% fetal bovine serum (Hyclone, SH30084.03), 1% penicillin streptomycin (Welgene, LS202-02) and 50 μM 2-Mercaptoethanol (Gibco, #21985023) were contained. In the test, 1.5-2×10^5 cells/250 μl per each well were dispensed in a 48-well plate (SPL, #30048) and incubated in an incubator at 37° C. and 5% CO2 for 16 hours, and then the compounds were diluted in DMSO so that the final concentration was 0.5 μM. It was treated with Lipopolysaccharides (LPS) (sigma, #L6529) […]. After treatment with the compound, the LPS was treated so that the final concentration was 500 ng/ml, and then the cell culture fluid was collected after culturing for 24 hours, and the degrees of the cytokines IL-6 (R&D system, #D6050) and TNF-α (R&D system, #DTA00D) contained in the culture fluid were collected using each ELISA kit. After performing the experiment according to the manufacturer's instructions, the absorbance at 450 nm was measured and analyzed using a microplate reader.

MDA-MB-231 cell line = test: MDA-MB-231 cancer cell proliferation inhibition (Cell Titer-Glo); assay type: cell-based; conditions: Homo sapiens, MDA-MB-231 triple-negative breast cancer cell line, 72 hours
How it was run: (§2)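 GI50 comes from CellTiter-Glo luminescence, read 10 min after reagent addition at RT, following 72 h compound treatment. Eleven concentrations were used (⅓ steps, highest 10 μM final) on 2000 cells/well. MDA-MB-231 and MDA-MB-468 were grown in DMEM, SHP-77 in RPMI.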

IL-6 = IL-6 secretion inhibition in LPS-treated THP-1 cells (ELISA); assay type: cell-based; conditions: Homo sapiens, compound 0.5 μM, LPS 500 ng/ml, 24 hours, read-out: THP1/IL6 (% inhib)
Protocol: as §1

LRRK2 (G2019S) = LRRK2 (G2019S) (Homo sapiens, UniProt Q5S007, G2019S); test: LRRK2 G2019S enzyme inhibition, ADP-Glo kinase assay; assay type: biochemical; set-up: purchased SignalChem L10-12GG
How it was run: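 Purified human LRRK2 G2019S (16 ng) with 25 μM ATP and 0.2 μg substrate, 2 h at 25° C in 40 mM Tris-HCl pH 7.4, 20 mM MgCl2, 0.5 mg/ml BSA, 50 μM DTT; compound at 12 final concentrations from 50 μM downward. ADP-Glo luminescence versus solvent control gave IC50 (nM).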

human DYRK1A and Tau = test: Tau phosphorylation inhibition, ClariCELL Kinase Cell-Based Assay (Carnabio)
How it was run: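 HEK293 cells transiently expressing human DYRK1A and Tau were exposed to compound, then lysed. Released Tau was captured on plate and its phosphorylation quantified by ELISA with a phospho-Tau-specific antibody.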

SHP-77 = SHP-77 cancer cell proliferation inhibition (Cell Titer-Glo); assay type: cell-based; conditions: Homo sapiens, SHP77, SHP-77 small cell lung cancer cell line, 72 hours
How it was run: as §2

Sequence of LRRK2 (G2019S) (Q5S007 970-2527 G2019S limits assumed): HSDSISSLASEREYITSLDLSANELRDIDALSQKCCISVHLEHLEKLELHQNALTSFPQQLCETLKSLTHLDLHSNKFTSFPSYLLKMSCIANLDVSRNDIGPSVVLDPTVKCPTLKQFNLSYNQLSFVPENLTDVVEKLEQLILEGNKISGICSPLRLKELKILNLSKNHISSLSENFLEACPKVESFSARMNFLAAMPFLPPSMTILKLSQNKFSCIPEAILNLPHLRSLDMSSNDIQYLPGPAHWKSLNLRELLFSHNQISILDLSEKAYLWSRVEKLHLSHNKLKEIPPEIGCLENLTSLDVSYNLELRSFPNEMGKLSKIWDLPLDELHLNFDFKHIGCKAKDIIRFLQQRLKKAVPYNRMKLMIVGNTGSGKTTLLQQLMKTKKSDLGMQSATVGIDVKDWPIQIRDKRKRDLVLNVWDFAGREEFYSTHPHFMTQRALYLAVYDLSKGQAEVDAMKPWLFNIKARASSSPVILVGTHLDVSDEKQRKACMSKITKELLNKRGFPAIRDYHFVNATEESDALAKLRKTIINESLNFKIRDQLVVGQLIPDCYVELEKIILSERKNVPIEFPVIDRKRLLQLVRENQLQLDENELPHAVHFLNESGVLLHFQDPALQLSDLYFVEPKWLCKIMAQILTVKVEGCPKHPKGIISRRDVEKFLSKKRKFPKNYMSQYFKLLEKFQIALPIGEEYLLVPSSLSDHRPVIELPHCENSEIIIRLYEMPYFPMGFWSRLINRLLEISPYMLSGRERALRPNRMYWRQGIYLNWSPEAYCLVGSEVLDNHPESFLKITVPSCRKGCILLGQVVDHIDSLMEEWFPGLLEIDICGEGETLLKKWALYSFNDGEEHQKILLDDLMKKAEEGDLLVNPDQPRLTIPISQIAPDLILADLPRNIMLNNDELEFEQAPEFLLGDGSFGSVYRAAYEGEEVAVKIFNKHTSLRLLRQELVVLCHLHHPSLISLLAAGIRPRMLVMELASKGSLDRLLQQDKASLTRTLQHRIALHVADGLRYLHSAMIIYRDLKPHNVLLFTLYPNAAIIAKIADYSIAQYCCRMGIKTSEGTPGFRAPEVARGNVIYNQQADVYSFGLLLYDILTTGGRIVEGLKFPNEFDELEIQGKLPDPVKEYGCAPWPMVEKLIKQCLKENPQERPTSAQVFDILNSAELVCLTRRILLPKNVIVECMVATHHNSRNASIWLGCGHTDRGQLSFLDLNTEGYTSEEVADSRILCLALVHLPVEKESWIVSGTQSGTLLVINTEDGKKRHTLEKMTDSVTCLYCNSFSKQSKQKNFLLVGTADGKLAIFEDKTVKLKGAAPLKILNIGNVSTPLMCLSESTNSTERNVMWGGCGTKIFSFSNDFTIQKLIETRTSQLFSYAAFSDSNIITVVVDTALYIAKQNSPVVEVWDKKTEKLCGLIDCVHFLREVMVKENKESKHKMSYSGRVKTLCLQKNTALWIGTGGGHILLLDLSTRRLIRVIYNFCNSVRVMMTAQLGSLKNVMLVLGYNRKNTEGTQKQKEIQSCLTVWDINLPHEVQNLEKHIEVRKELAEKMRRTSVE
T2 sequence (P49759 129-484 limits assumed): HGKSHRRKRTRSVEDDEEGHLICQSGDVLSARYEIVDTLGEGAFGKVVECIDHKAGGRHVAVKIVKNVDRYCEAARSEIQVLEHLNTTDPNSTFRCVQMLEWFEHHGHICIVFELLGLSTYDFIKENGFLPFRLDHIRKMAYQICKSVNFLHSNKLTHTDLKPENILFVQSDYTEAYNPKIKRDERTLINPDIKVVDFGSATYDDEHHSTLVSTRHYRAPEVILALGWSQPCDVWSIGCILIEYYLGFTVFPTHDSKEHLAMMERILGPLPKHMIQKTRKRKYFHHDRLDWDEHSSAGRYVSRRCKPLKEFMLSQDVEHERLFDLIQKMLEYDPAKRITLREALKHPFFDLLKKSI
Sequence of LRRK2 (Q5S007 970-2527 limits assumed): as the sequence (Q5S007 970-2527 G2019S limits assumed) above, with S1050G counted along it

SMILES	IC50 [1] [µM]	IC50 (human GST-CLK1 (129-end)) [µM]	IC50 (LRRK2) [µM]	IC50 [2] [µM]	inhibition at 0.5 µM (TNF-α) [%]	GI50 (MDA-MB-231 cell line) [µM]	inhibition at 0.5 µM (IL-6) [%]	IC50 (LRRK2 (G2019S)) [µM]	inhibition at 0.25 µM (human DYRK1A and Tau) [%]	inhibition at 0.5 µM (human DYRK1A and Tau) [%]	inhibition at 1 µM (human DYRK1A and Tau) [%]	GI50 (SHP-77) [µM]
COc1cc(P(C)(C)=O)ccc1Nc1cc(C2CC2)c2c(C(F)(F)F)c[nH]c2n1 [Example 219, (4-((4-cyclopropyl-3-(trifluoromethyl)-1H-pyrrolo[2,3-b]pyridin-6-yl)amino)-3-methoxyphenyl) dimethylphosphine oxide]	< 0.1	0.301 to 1										
CNc1cc(Nc2ccc(P3(=O)CCN(C4COC4)CC3)cc2OC)nc2[nH]cc(C(F)(F)F)c12 [Example 212, 4-(3-methoxy-4-((4-(methylamino)-3-(trifluoromethyl)-1H-pyrrolo[2,3-b]pyridin-6-yl)amino)phenyl)-1-(oxetan-3-yl)-1,4-azaphosphinane 4-oxide]		< 0.1	< 0.1	< 0.1	2.7	0.301 to 1	29.1					
CCNc1cc(Nc2ccc(C(=O)N3CCC(N4CCN(C)CC4)CC3)c3c2OCC3)nc2[nH]cc(C(F)(F)F)c12 [Example 247, (7-((4-(ethylamino)-3-(trifluoromethyl)-1H-pyrrolo[2,3-b]pyridin-6-yl)amino)-2,3-dihydrobenzofuran-4-yl)(4-(4-methylpiperazin-1-yl)piperidin-1-yl)methanone]		< 0.1		< 0.1	15.5		31.9	< 0.1	52.3	76.8	104	
COc1cc(P2(=O)CCN(C3CCOCC3)CC2)ccc1Nc1cc(C2CC2)c2c(C(F)(F)F)c[nH]c2n1 [Example 102, 4-(4-((4-cyclopropyl-3-(trifluoromethyl)-1H-pyrrolo[2,3-b]pyridin-6-yl)amino)-3-methoxyphenyl)-1-(tetrahydro-2H-pyran-4-yl)-1,4-azaphosphinane 4-oxide]	< 0.1	0.301 to 1										
COCCNc1cc(Nc2ccc(S(=O)(=O)N3CCC(N4CCOCC4)CC3)cc2OC)nc2[nH]cc(C#N)c12 [Example 140, 6-((2-methoxy-4-((4-morpholinopiperidin-1-yl)sulfonyl)phenyl)amino)-4-((2-methoxyethyl)amino)-1H-pyrrolo[2,3-b]pyridine-3-carbonitrile]	< 0.1	< 0.1	< 0.1			< 0.05		< 0.1				0.051 to 0.1
COc1cc(S(C)(=O)=O)ccc1Nc1cc(C2CC2)c2c(C(F)(F)F)c[nH]c2n1 [Example 224, 4-cyclopropyl-N-(2-methoxy-4-(methylsulfonyl)phenyl)-3-(trifluoromethyl)-1H-pyrrolo[2,3-b]pyridin-6-amine]	< 0.1	0.301 to 1	0.301 to 1					0.301 to 1				
COc1cc(P2(=O)CCN(C3COC3)CC2)ccc1Nc1cc(C2CC2)c2c(C(F)(F)F)c[nH]c2n1 [Example 47, 4-(4-((4-cyclopropyl-3-(trifluoromethyl)-1H-pyrrolo[2,3-b]pyridin-6-yl)amino)-3-methoxyphenyl)-1-(oxetan-3-yl)-1,4-azaphosphinane 4-oxide]	< 0.1	< 0.1	0.101 to 0.3			0.301 to 1			3.7	15	22.4	
CCNc1cc(Nc2ccc(C(=O)N3CCC(N(C)C)CC3)c3c2OCC3)nc2[nH]cc(C(F)(F)F)c12 [Example 249, (4-(dimethylamino)piperidin-1-yl)(7-((4-(ethylamino)-3-(trifluoromethyl)-1H-pyrrolo[2,3-b]pyridin-6-yl)amino)-2,3-dihydrobenzofuran-4-yl)methanone]		< 0.1		< 0.1	10.1		60.3	< 0.1	62.4	76.9	82.9	
